Where two headings read alike, the source gives them in different places.
Tests used:
[1] = biological target: T1, human LSD1-CoREST complex (Homo sapiens, UniProt O60341); experiment: ThermoFAD thermal stability assay; format: binding; details: LSD1-CoREST thermal stability
T1 construct: made in house
Procedure: Compounds 14–22 were tested against the human LSD1-CoREST complex to determine their inhibitory activity. […] ThermoFAD assays were then performed to assess the impact of 14–22 on the thermal stability (ΔT m values, Table ) of the LSD1-CoREST complex. The most significant shifts in Tm values corresponded to the strongest binders. […] Compound 22 was not tested, considering its previous negative results.
Protein expression, thermal stability, and inhibition of human LSD1-CoREST were performed using established protocols. […] LSD1-CoREST (0.4 μM) was preincubated with the inhibitor at 25 °C for 10 min in the presence of 5% DMSO. The reaction was initiated by adding an equal volume of the substrate solution to the enzyme–inhibitor mixture, and resorufin fluorescence (excitation at 530–570 nm and emission at 580–590 nm) was detected with a Clariostar plate reader.

[2] = biological target: T1, human LSD1-CoREST complex; experiment: HRP-coupled LSD1 inhibition assay; format: biochemical; details: 10 min preincubation; for IC50: read-out: IC50 (hLSD1 direct inhibition)
Procedure: Protein expression, thermal stability, and inhibition of human LSD1-CoREST were performed using established protocols. […] The reaction was initiated by adding an equal volume of the substrate solution to the enzyme–inhibitor mixture, and resorufin fluorescence (excitation at 530–570 nm and emission at 580–590 nm) was detected with a Clariostar plate reader.

adult worms [3] = experiment: Pairing and egg laying of adult worms; format: cell-based, Schistosoma mansoni; details: for eggs' number: 20 μM; for effect on worm pairing: adult worms
Procedure: Selected compounds 2, 15, 18, and 19 were tested on adult worms to evaluate their effects on pairing and egg laying.

NTS = experiment: Speed-of-action assay in NTS; format: cell-based, Schistosoma mansoni; details: for Percentage of effect: NTS; for IC50: Schistosoma mansoni, read-out: IC50 (speed of action, NTS)
Excerpt: (§1) To better characterize a selection of our LSD1i in vitro, we assessed the onset of their action, defined as the time required for an observable antischistosomal effect. […] For detailed percentages of activity at each time point, refer to the Supporting Information (Tables S2 and S3 in Supporting Information).

[4] = test system: S. mansoni juvenile forms; experiment: Speed-of-action assay in juvenile forms; format: cell-based, Schistosoma mansoni; details: for IC50: Schistosoma mansoni, read-out: IC50 (speed of action, juvenile forms); for Percentage of effect: juvenile forms
Excerpt: as §1

[5] = MTT cytotoxicity in RPE cells; format: cell-based; details: human, retinal pigment epithelial (RPE) cells; for viability at 72 h, 5 µM / viability at 72 h, 10 µM / viability at 72 h, 25 µM / viability at 72 h, 50 µM: read-out: percentage of viability, 72 h; for IC50 at 72 h: read-out: IC50 (cell viability)
Procedure: (§2) The MTT method was used to evaluate cell viability after 72 h of treatment.
(§3) Human commercial lung diploid fibroblasts (MRC-5), and diploid retinal epithelium cells (RPE) were obtained from the American Type Culture Collection (ATCC) and kindly provided by Dr Francesca Degrassi (CNR IBPM) and maintained in minimal essential medium or DMEM-F12 medium supplemented with fetal calf serum, antibiotics, and nonessential amino acids. Cells were grown at 37 °C, in a humidified atmosphere, with 5% CO2. For experiments, cells were seeded in 200 μL of complete in each well of a 96-well microtiter plate. After 24 h, compounds were added at 5, 10, 25, and 50 μM for 72 h in sextuplicate. MTT was added (0.5 mg/mL), incubated for 4 h at 37 °C, and dissolved in 200 μL of isopropyl alcohol. Absorbance was measured at 570 nm (ELISA reader, DASIT), and cell viability was calculated as viability=(ODoftreatedcells/ODofcontrolcells)×100

[6] = MTT cytotoxicity in MRC-5 cells; format: cell-based; details: human, MRC-5 lung diploid fibroblast cells; for viability at 72 h, 5 µM / viability at 72 h, 10 µM / viability at 72 h, 25 µM / viability at 72 h, 50 µM: read-out: percentage of viability, 72 h; for IC50 at 72 h: read-out: IC50 (cell viability)
Procedure: as §2, §3

[7] = test system: newly transformed schistosomula (NTS); experiment: NTS viability phenotypic screening, 72 h; details: for IC50: Schistosoma mansoni, read-out: IC50 (NTS viability)
Procedure: (§4) For NTS and adult worms, transparent flat-bottom 96- and 24-well plates were used, respectively (Sarstedt, Switzerland). For juvenile worms, 48-well plates were used with 3–6 worms per plate and RPMI medium with 5% FCS and 1% penicillin/streptomycin. Compounds were initially tested at 20 and 10 μM in triplicate on NTS and repeated once; each well contained 30–40 NTS. Phenotypic reference points such as motility, morphology, and granularity were used to score incubated parasites’ overall viability (scores from 0 to 3). […] Identified hits from the NTS screening were tested on adult worms. […] The experiment was conducted in duplicate and repeated; standard deviations were calculated from two wells. […] For all in vitro assays, negative controls (DMSO at the highest tested concentration) were included.

adult worms [8] = experiment: Adult worm viability phenotypic assay, 72 h; details: Schistosoma mansoni, read-out: IC50 (adult worm viability)
Procedure: The life cycle is maintained at the Swiss TPH as described previously. Cercariae were obtained from infected snails by exposing them to a strong light source for 3–4 h in pond water.
as §4

## CC#Cc1ccc(C(=O)Nc2ccc(C3CC3N)cc2)cc1.Cl (stereo not drawn) [Compound 18, N-(4-(2-Aminocyclopropyl)phenyl)-4-(prop-1-yn-1-yl)benzamide Hydrochloride]
[1]
  ΔTm: +8 °C
[2]
  IC50: 0.13 ± 0.02 µM
Adult worms [3]; 4 h
  eggs' number: 0
Adult worms [3]; 8 h
  eggs' number: 0
Adult worms [3]; 24 h
  eggs' number: 0
Adult worms [3]; 48 h
  eggs' number: 0
Adult worms [3]; 72 h
  eggs' number: 2
Adult worms [3]
  effect on worm pairing: no impact on worm pairing
NTS; 4 h, 10 μM
  Percentage of effect: 26.92%
NTS; 4 h, 20 μM
  Percentage of effect: 30.77%
NTS; 24 h, 10 μM
  Percentage of effect: 51.79%
NTS; 24 h, 20 μM
  Percentage of effect: 75%
NTS; 48 h, 10 μM
  Percentage of effect: 81.63%
NTS; 48 h, 20 μM
  Percentage of effect: 87.76%
NTS; 72 h, 20 μM
  Percentage of effect: 100%
NTS; 4 h
  IC50: > 20 µM
NTS; 24 h
  IC50: 6.9 µM
NTS; 48 h
  IC50: 4.4 µM
NTS; 72 h
  IC50: 2.4 µM
[4]; 4 h
  IC50: > 20 µM
[4]; 24 h
  IC50: > 20 µM
[4]; 48 h
  IC50: > 20 µM
[4]; 72 h
  IC50: 3.8 µM
[4]; 4 h, 1 μM
  Percentage of effect: 20%
[4]; 4 h, 10 μM
  Percentage of effect: 20%
[4]; 4 h, 20 μM
  Percentage of effect: 43.64%
[4]; 24 h, 1 μM
  Percentage of effect: 24.14%
[4]; 24 h, 10 μM
  Percentage of effect: 31.03%
[4]; 24 h, 20 μM
  Percentage of effect: 46.15%
[4]; 48 h, 1 μM
  Percentage of effect: 34.62%
[4]; 48 h, 10 μM
  Percentage of effect: 42.31%
[4]; 48 h, 20 μM
  Percentage of effect: 47.92%
[4]; 72 h, 1 μM
  Percentage of effect: 42.81%
[4]; 72 h, 10 μM
  Percentage of effect: 44.77%
[4]; 72 h, 20 μM
  Percentage of effect: 70.83%
[5]
  viability at 72 h, 5 µM: 82 ± 21%
  viability at 72 h, 10 µM: 86 ± 36%
  viability at 72 h, 25 µM: 104 ± 20%
  viability at 72 h, 50 µM: 95 ± 2%
  IC50 at 72 h: > 100 µM
[6]
  viability at 72 h, 5 µM: 111 ± 10%
  viability at 72 h, 10 µM: 75 ± 15%
  viability at 72 h, 25 µM: 98 ± 14%
  viability at 72 h, 50 µM: 75 ± 12%
  IC50 at 72 h: > 100 µM
[7]; 1 μM
  Percentage of reduction of NTS viability, 72 h: 22.6 ± 1.9%
[7]; 10 μM
  Percentage of reduction of NTS viability, 72 h: 95.8 ± 4.2%
[7]; 20 μM
  Percentage of reduction of NTS viability, 72 h: 100 ± 0.0%
[7]
  IC50: 1.76 µM
Adult worms [8]
  IC50: > 10 µM

## Cl.NC1CC1c1ccc(NC(=O)c2ccc(C#Cc3ccccc3)cc2)cc1 (stereo not drawn) [Compound 20, N-(4-(2-Aminocyclopropyl)phenyl)-4-(phenylethynyl)benzamide Hydrochloride]
[1]
  ΔTm: +8 °C
[2]
  IC50 (hLSD1 direct inhibition): single-digit μM inhibition
  IC50: 4.02 ± 0.41 µM
[7]; 10 μM
  Percentage of reduction of NTS viability, 72 h: 29.2 ± 0.0%
[7]; 20 μM
  Percentage of reduction of NTS viability, 72 h: 77.8 ± 2.1%
[7]
  IC50: > 10 µM
Adult worms [8]
  IC50: > 20 µM

## Cl.NC1CC1c1ccc(NC(=O)c2ccc(C#CC3CC3)cc2)cc1 (stereo not drawn) [Compound 19, N-(4-(2-Aminocyclopropyl)phenyl)-4-(cyclopropylethynyl)benzamide Hydrochloride]
[1]
  ΔTm: +8 °C
[2]
  IC50: 0.02 ± 0.001 µM
Adult worms [3]; 4 h
  eggs' number: 0
Adult worms [3]; 8 h
  eggs' number: 0
Adult worms [3]; 24 h
  eggs' number: 0
Adult worms [3]; 48 h
  eggs' number: 0
Adult worms [3]; 72 h
  eggs' number: 5
Adult worms [3]
  effect on worm pairing: no impact on worm pairing
NTS; 4 h, 10 μM
  Percentage of effect: 30.77%
NTS; 4 h, 20 μM
  Percentage of effect: 38.46%
NTS; 24 h, 10 μM
  Percentage of effect: 48.21%
NTS; 24 h, 20 μM
  Percentage of effect: 78.57%
NTS; 48 h, 10 μM
  Percentage of effect: 87.76%
NTS; 48 h, 20 μM
  Percentage of effect: 100%
NTS; 72 h, 10 μM
  Percentage of effect: 93.88%
NTS; 72 h, 20 μM
  Percentage of effect: 100%
NTS; 4 h
  IC50: > 20 µM
NTS; 24 h
  IC50: 10.4 µM
NTS; 48 h
  IC50: 8.3 µM
NTS; 72 h
  IC50: 7.5 µM
[4]; 4 h
  IC50: > 20 µM
[4]; 24 h
  IC50: > 20 µM
[4]; 48 h
  IC50: > 20 µM
[4]; 72 h
  IC50: 2.7 µM
[4]; 4 h, 1 μM
  Percentage of effect: 20%
[4]; 4 h, 10 μM
  Percentage of effect: 20%
[4]; 4 h, 20 μM
  Percentage of effect: 41.82%
[4]; 24 h, 1 μM
  Percentage of effect: 27.59%
[4]; 24 h, 10 μM
  Percentage of effect: 34.48%
[4]; 24 h, 20 μM
  Percentage of effect: 40.38%
[4]; 48 h, 1 μM
  Percentage of effect: 36.54%
[4]; 48 h, 10 μM
  Percentage of effect: 46.15%
[4]; 48 h, 20 μM
  Percentage of effect: 47.92%
[4]; 72 h, 1 μM
  Percentage of effect: 43.03%
[4]; 72 h, 10 μM
  Percentage of effect: 46.73%
[4]; 72 h, 20 μM
  Percentage of effect: 81.25%
[5]
  viability at 72 h, 5 µM: 92 ± 26%
  viability at 72 h, 10 µM: 89 ± 35%
  viability at 72 h, 25 µM: 98 ± 21%
  viability at 72 h, 50 µM: 103 ± 20%
  IC50 at 72 h: > 100 µM
[6]
  viability at 72 h, 5 µM: 98 ± 20%
  viability at 72 h, 10 µM: 88 ± 18%
  viability at 72 h, 25 µM: 85 ± 8%
  viability at 72 h, 50 µM: 85 ± 35%
  IC50 at 72 h: > 100 µM
[7]; 1 μM
  Percentage of reduction of NTS viability, 72 h: 22.6 ± 1.9%
[7]; 10 μM
  Percentage of reduction of NTS viability, 72 h: 100 ± 0.0%
[7]; 20 μM
  Percentage of reduction of NTS viability, 72 h: 100 ± 0.0%
[7]
  IC50: 1.27 µM
Adult worms [8]
  IC50: > 10 µM

## C#Cc1cccc(C(=O)Nc2ccc(C3CC3N)cc2)c1.Cl (stereo not drawn) [Compound 16, N-(4-(2-Aminocyclopropyl)phenyl)-3-ethynylbenzamide Hydrochloride]
[1]
  ΔTm: +10 °C
[2]
  IC50: 0.07 ± 0.02 µM
[7]; 10 μM
  Percentage of reduction of NTS viability, 72 h: 31.2 ± 6.3%
[7]; 20 μM
  Percentage of reduction of NTS viability, 72 h: 77.8 ± 2.1%
[7]
  IC50: > 10 µM
Adult worms [8]
  IC50: > 20 µM
